Data on ten molecules can be found in US20260217767A1, “NOVEL A4B7 THIOETHER PEPTIDE DIMER ANTAGONISTS” (Protagonist Therapeutics, Inc., priority 2014, published 2026).

Structures are written as SMILES. *1 amine or outer side, *2 acyl side, *3 side chain or, on linkers, in order; H or OH if unused. Where a SMILES comes first, the peptide text is derived from it. Bridges are numbered along the chain shown (N, C = ends). Roman numbers before positions name the chains, in order. [ ]: non-standard residue; d: D form. Phe(4-tBu) = CC(C)(C)c1ccc(C[C@H](N)C(=O)O)cc1; Bip = N[C@@H](Cc1ccc(-c2ccccc2)cc1)C(=O)O; Diglycolyl = O=C(COCC(=O)[*:2])[*:1]; NMeR = CN[C@@H](CCCNC(=N)N)C(=O)O; β3hE = N[C@@H](CCC(=O)O)CC(=O)O; X1 = O=C(c1ccccc1C[*:2])[*:1]; Pen = CC(C)(S)[C@H](N)C(=O)O; hCys = N[C@@H](CCS)C(=O)O Some results are limits rather than exact numbers.

System in the first series: not listed separately
Briefly: Simulated Intestinal Fluid (SIF) Stability Assay. It counts as in vitro ADME. Conditions: pig, porcine pancreatin, 37° C.; dimers, Table 7. The method in brief: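 Peptide at 22 μM final was incubated at 37° C in blank FaSSIF pH 6.5 with 1% porcine pancreatin. Timed samples were quenched in acetonitrile/methanol/formic acid with internal standard and analysed by LC-MS/MS. Half-lives came from first-order exponential fits of percent remaining.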
In turn, `CC(C)C[C@@H]1NC(=O)[C@H]([C@@H](C)O)NC(=O)[C@H](CC(=O)O)NC(=O)[C@H](CO)NC(=O)[C@H](CCCNC(=N)N)N(C)C(=O)c2ccccc2CSC[C@H](C(=O)N[C@@H](Cc2c[nH]c3ccccc23)C(=O)N[C@@H](CCC(=O)O)CC(=O)N[C@H](CCCCNC(=O)COCC(=O)NCCCC[C@@H](NC(=O)C[C@H](CCC(=O)O)NC(=O)[C@H](Cc2c[nH]c3ccccc23)NC(=O)[C@H]2CSCc3ccccc3C(=O)N(C)[C@@H](CCCNC(=N)N)C(=O)N[C@@H](CO)C(=O)N[C@@H](CC(=O)O)C(=O)N[C@@H]([C@@H](C)O)C(=O)N[C@@H](CC(C)C)C(=O)N2)C(N)=O)C(N)=O)NC1=O` [compound 156] (I: [NMeR]SDTL[dC]W[β3hE][dK]-NH2 / II: [NMeR]SDTL[dC]W[β3hE][dK]-NH2; linker I:9-II:9 via Diglycolyl; linker I:N-I:6, II:N-II:6 via X1) had a half-life of more than 3 h.
In turn, `CC(C)C[C@@H]1NC(=O)[C@H]([C@@H](C)O)NC(=O)[C@H](CC(=O)O)NC(=O)[C@H](CO)NC(=O)[C@H](CCCNC(=N)N)N(C)C(=O)c2ccccc2CSCC[C@@H](C(=O)N[C@@H](Cc2c[nH]c3ccccc23)C(=O)N[C@@H](CCC(=O)O)C(=O)N[C@H](CCCCNC(=O)COCC(=O)NCCCC[C@@H](NC(=O)[C@H](CCC(=O)O)NC(=O)[C@H](Cc2c[nH]c3ccccc23)NC(=O)[C@@H]2CCSCc3ccccc3C(=O)N(C)[C@@H](CCCNC(=N)N)C(=O)N[C@@H](CO)C(=O)N[C@@H](CC(=O)O)C(=O)N[C@@H]([C@@H](C)O)C(=O)N[C@@H](CC(C)C)C(=O)N2)C(N)=O)C(N)=O)NC1=O` [compound 157] (I: [NMeR]SDTL[hCys]WE[dK]-NH2 / II: [NMeR]SDTL[hCys]WE[dK]-NH2; linker I:9-II:9 via Diglycolyl; linker I:N-I:6, II:N-II:6 via X1) registered a half-life of less than 0.333 h.

The series is the same for the next values; noted with them: pig, simulated intestinal fluid (SIF) with 1% porcine pancreatin, pH 6.5, porcine pancreatin, 37° C.; monomers, Table 6.
The molecule `CC(C)C[C@@H]1NC(=O)[C@H]([C@@H](C)O)NC(=O)[C@H](CC(=O)O)NC(=O)[C@H](CO)NC(=O)[C@H](CCCNC(=N)N)N(C)C(=O)c2ccccc2CSC(C)(C)[C@@H](C(=O)N[C@@H](Cc2ccc(-c3ccccc3)cc2)C(=O)N[C@@H](CCC(=O)O)CC(N)=O)NC1=O` [compound 133] ([NMeR]SDTL[Pen][Bip][β3hE]-NH2; linker N-6 via X1) returned a half-life at 22 μM of more than 3 h.
Turning to `CC(C)C[C@@H]1NC(=O)[C@H]([C@@H](C)O)NC(=O)[C@H](CC(=O)O)NC(=O)[C@H](CO)NC(=O)[C@H](CCCNC(=N)N)N(C)C(=O)c2ccccc2CSC(C)(C)[C@@H](C(=O)N[C@@H](Cc2ccc(C(C)(C)C)cc2)C(=O)N[C@@H](CCC(=O)O)CC(N)=O)NC1=O` [compound 134] ([NMeR]SDTL[Pen][Phe(4-tBu)][β3hE]-NH2; linker N-6 via X1), the half-life at 22 μM was more than 3 h.

The next series concerns the target T1, rh integrin α4β7 (Homo sapiens, UniProt P13612+P26010).
T1 construct: purchased R&D Systems 5397-A30
T1 sequence (P13612 34-977 limits assumed): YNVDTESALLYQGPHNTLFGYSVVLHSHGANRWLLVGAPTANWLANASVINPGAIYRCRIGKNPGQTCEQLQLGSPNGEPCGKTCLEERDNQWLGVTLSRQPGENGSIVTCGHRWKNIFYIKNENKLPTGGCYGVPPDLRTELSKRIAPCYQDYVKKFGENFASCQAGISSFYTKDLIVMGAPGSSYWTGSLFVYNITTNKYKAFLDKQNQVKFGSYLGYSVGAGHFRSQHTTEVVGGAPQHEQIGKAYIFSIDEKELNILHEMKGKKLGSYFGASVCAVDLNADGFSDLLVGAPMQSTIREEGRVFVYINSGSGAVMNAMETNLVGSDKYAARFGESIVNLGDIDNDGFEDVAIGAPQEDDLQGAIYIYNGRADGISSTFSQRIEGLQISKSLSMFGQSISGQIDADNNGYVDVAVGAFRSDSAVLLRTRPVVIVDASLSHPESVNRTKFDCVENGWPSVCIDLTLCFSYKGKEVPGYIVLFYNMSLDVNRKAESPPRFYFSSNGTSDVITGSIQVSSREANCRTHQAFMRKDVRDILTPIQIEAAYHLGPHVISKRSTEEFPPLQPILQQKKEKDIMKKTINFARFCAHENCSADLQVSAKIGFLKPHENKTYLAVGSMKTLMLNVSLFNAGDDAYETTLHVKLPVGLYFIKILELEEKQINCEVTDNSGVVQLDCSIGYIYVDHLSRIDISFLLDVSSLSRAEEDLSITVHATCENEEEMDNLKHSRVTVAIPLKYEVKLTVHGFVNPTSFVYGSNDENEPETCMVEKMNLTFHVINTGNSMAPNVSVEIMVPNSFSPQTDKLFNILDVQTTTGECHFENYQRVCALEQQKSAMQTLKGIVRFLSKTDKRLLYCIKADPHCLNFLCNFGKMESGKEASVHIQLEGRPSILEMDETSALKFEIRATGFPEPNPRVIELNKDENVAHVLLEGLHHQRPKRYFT
T1 sequence (P26010 20-723 limits assumed): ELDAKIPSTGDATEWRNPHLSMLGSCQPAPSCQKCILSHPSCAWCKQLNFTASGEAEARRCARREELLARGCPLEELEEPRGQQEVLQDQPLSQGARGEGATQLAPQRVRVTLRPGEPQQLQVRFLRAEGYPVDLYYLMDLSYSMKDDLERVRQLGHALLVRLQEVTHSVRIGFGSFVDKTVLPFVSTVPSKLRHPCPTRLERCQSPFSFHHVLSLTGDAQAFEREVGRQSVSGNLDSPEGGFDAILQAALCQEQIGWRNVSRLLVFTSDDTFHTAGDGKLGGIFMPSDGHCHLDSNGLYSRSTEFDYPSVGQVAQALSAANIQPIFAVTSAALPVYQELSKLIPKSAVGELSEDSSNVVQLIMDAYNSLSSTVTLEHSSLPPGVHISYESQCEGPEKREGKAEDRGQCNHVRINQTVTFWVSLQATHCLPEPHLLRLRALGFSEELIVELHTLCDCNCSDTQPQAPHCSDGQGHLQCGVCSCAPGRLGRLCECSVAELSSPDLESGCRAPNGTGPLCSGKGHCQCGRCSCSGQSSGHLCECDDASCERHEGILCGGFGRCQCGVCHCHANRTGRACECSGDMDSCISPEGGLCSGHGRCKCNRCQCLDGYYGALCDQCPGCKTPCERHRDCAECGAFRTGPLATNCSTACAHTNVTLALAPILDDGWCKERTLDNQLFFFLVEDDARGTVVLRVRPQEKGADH
Briefly: α4β7-MAdCAM Competition ELISA. It counts as binding. Particulars: thioether monomer peptides, Table 6; read-out: ELISA A4B7. Put shortly:
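Recombinant human α4β7 captured on nickel-coated plates, then incubated 1 h at room temperature with serially diluted peptides (final top 10 μM) and 10 nM final MAdCAM-1 in Tris pH 7.6 buffer with 1 mM MnCl2 or MgCl2. Bound MAdCAM-1 detected with anti-human IgG1-HRP and TMB, absorbance at 450 nm.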
As for `CC(=O)NCCCC[C@@H](NC(=O)[C@H](CCC(=O)O)NC(=O)[C@H](Cc1c[nH]c2ccccc12)NC(=O)[C@H]1NC(=O)[C@H](CC(C)C)NC(=O)[C@H]([C@@H](C)O)NC(=O)[C@H](CC(=O)O)NC(=O)[C@H](CO)NC(=O)[C@H](CCCNC(=N)N)N(C)C(=O)c2ccccc2CSC1(C)C)C(N)=O` [compound 80] (HELM PEPTIDE1{[meR].S.D.T.L.[Pen].W.E.[dK].[am]}|PEPTIDE2{[ac]}|CHEM1{[O=C(c1ccccc1C[*:2])[*:1]]}$PEPTIDE1,PEPTIDE2,9:R3-1:R2|PEPTIDE1,CHEM1,1:R1-1:R1|PEPTIDE1,CHEM1,6:R3-1:R2$$$V2.0), the IC50 is less than 0.025 µM.
With `CC(=O)NCCCC[C@@H](NC(=O)[C@@H](CCC(=O)O)NC(=O)[C@H](Cc1c[nH]c2ccccc12)NC(=O)[C@H]1NC(=O)[C@H](CC(C)C)NC(=O)[C@H]([C@@H](C)O)NC(=O)[C@H](CC(=O)O)NC(=O)[C@H](CO)NC(=O)[C@H](CCCNC(=N)N)N(C)C(=O)c2ccccc2CSC1(C)C)C(N)=O` [compound 81] (HELM PEPTIDE1{[meR].S.D.T.L.[Pen].W.[dE].[dK].[am]}|PEPTIDE2{[ac]}|CHEM1{[O=C(c1ccccc1C[*:2])[*:1]]}$PEPTIDE1,PEPTIDE2,9:R3-1:R2|PEPTIDE1,CHEM1,1:R1-1:R1|PEPTIDE1,CHEM1,6:R3-1:R2$$$V2.0), the IC50 was less than 0.025 µM.
For `CC(=O)NCCCC[C@@H](NC(=O)[C@H](CCC(=O)O)NC(=O)[C@H](Cc1cccc2ccccc12)NC(=O)[C@H]1NC(=O)[C@H](CC(C)C)NC(=O)[C@H]([C@@H](C)O)NC(=O)[C@H](CC(=O)O)NC(=O)[C@H](CO)NC(=O)[C@H](CCCNC(=N)N)N(C)C(=O)c2ccccc2CSC1(C)C)C(N)=O` [compound 89] (HELM PEPTIDE1{[meR].S.D.T.L.[Pen].[O=C([C@H](Cc1cccc2ccccc12)N[*:1])[*:2]].E.[dK].[am]}|PEPTIDE2{[ac]}|CHEM1{[O=C(c1ccccc1C[*:2])[*:1]]}$PEPTIDE1,PEPTIDE2,9:R3-1:R2|PEPTIDE1,CHEM1,1:R1-1:R1|PEPTIDE1,CHEM1,6:R3-1:R2$$$V2.0), the IC50 was less than 0.025 µM.
For `CC(=O)NCCCC[C@@H](NC(=O)[C@@H](CCC(=O)O)NC(=O)[C@H](Cc1ccc(O)cc1)NC(=O)[C@H]1NC(=O)[C@H](CC(C)C)NC(=O)[C@H]([C@@H](C)O)NC(=O)[C@H](CC(=O)O)NC(=O)[C@H](CO)NC(=O)[C@H](CCCNC(=N)N)N(C)C(=O)c2ccccc2CSC1(C)C)C(N)=O` [compound 91] (HELM PEPTIDE1{[meR].S.D.T.L.[Pen].Y.[dE].[dK].[am]}|PEPTIDE2{[ac]}|CHEM1{[O=C(c1ccccc1C[*:2])[*:1]]}$PEPTIDE1,PEPTIDE2,9:R3-1:R2|PEPTIDE1,CHEM1,1:R1-1:R1|PEPTIDE1,CHEM1,6:R3-1:R2$$$V2.0), the IC50 is less than 0.025 µM.
Turning to `CC(C)C[C@@H]1NC(=O)[C@H]([C@@H](C)O)NC(=O)[C@H](CC(=O)O)NC(=O)[C@H](CO)NC(=O)[C@H](CCCNC(=N)N)N(C)C(=O)c2ccccc2CSC(C)(C)[C@@H](C(=O)N[C@@H](Cc2c[nH]c3ccccc23)C(=O)N[C@@H](CCC(=O)O)C(=O)N[C@@H](CN)C(N)=O)NC1=O` [compound 92] (HELM PEPTIDE1{[meR].S.D.T.L.[Pen].W.E.[NC[C@H](N[*:1])C(=O)[*:2]].[am]}|CHEM1{[O=C(c1ccccc1C[*:2])[*:1]]}$PEPTIDE1,CHEM1,1:R1-1:R1|PEPTIDE1,CHEM1,6:R3-1:R2$$$V2.0), the IC50 is less than 0.025 µM.
`CC(C)C[C@@H]1NC(=O)[C@H]([C@@H](C)O)NC(=O)[C@H](CC(=O)O)NC(=O)[C@H](CO)NC(=O)[C@H](CCCNC(=N)N)N(C)C(=O)c2ccccc2CSC(C)(C)[C@@H](C(=O)N[C@@H](Cc2c[nH]c3ccccc23)C(=O)N[C@@H](CCC(=O)O)C(=O)N[C@@H](CCN)C(N)=O)NC1=O` [compound 93] (HELM PEPTIDE1{[meR].S.D.T.L.[Pen].W.E.[Dab].[am]}|CHEM1{[O=C(c1ccccc1C[*:2])[*:1]]}$PEPTIDE1,CHEM1,1:R1-1:R1|PEPTIDE1,CHEM1,6:R3-1:R2$$$V2.0): the IC50 was less than 0.025 µM.

In general, half-life refers to the time needed for the level to fall by half in the phase considered.
